# Data as given in patent US9670159B2, “Pharmaceutical composition of a papillomavirus inhibitor” (AVIRAGEN THERAPEUTICS, INC., priority 2012, dated 2017).
# pIC50: −log10 of the molar value.
# What was measured:
# [1] = Solubility of the potassium salt in comparison with the hydrochloride; type: physicochemical; settings: potassium salt in comparison with its hydrochloride
# [2] = target: interaction between the E1 and E2 proteins of HPV11/HPV6 (Human papillomavirus 11, UniProt P04014+P04015); test: E1/E2 interaction test (luciferase reporter, mammalian two-hybrid type); type: cell-based
# Excerpt: (§1) In the present invention two types of tests are used to study the biological activity of compounds against papillomavirus. A first test (“E1/E2 interaction test”) evaluates the interaction between the E1 and E2 proteins of HPV (human papillomavirus) in human cells. A second test (“replication test”) measures the replication of viral genomic DNA in human cells.
# The test of interaction between E1 and E2 is similar to the tests often called “mammalian two-hybrid” tests. It is based on co-transfection of a reporter vector containing DNA binding sites for the E2 protein of HPV in the promoter controlling expression of the reporter gene, and of expression vectors coding the E1 and E2 proteins of HPV, the E1 protein being fused to the VP16 transactivation domain. […]
# Compound (Ia), either in solution or in pharmaceutical compositions (a), (d), (f) and (g), was evaluated for its inhibitory activity on the interaction between the E1 and E2 proteins of HPV11/HPV6 in human cell lines derived from renal epithelial cells or cervical carcinoma cells. Various doses (0.25-40 μM) were incubated in the cell medium for 2 days after transfection, and luciferase activity was measured to determine the IC50 of the compound on the interaction between the E1 and E2 proteins of the HPVs.
# [3] = tested on: E1 and E2 protein-dependent viral replication of HPV11; test: Replication test (replicon reporter vector, luciferase); type: cell-based; settings: Homo sapiens, read-out: IC50 on E1 and E2 protein-dependent viral replication of HPV11 in cells
# Excerpt: as §1
# The test of replication of viral genomic DNA is based on the co-transfection of a reporter vector containing an HPV origin of replication (ori) and expression vectors coding the E1 and E2 proteins of HPV. It makes it possible to follow the set of biological functions of E1 and E2 required for replication of the genome of the HPVs. […]
# Compound (Ia), either in solution or in pharmaceutical compositions (a), (d), (f) and (g), was also evaluated for its inhibitory activity on the E1- and E2-dependent viral replication of HPV11/HPV6 in human cell lines derived from renal epithelial cells or cervical carcinoma cells. Various doses (0.25-40 μM) were incubated in the cell medium for 2 to 6 days after transfection, and luciferase activity was measured using a luminometer to determine the IC50 of the compound on the replication of the genome of the HPVs.
# [4] = Percutaneous absorption in vitro on human skin mounted on a Franz cell; type: in vitro ADME; settings: 8 hours of diffusion
# Experimental: The percutaneous absorption of compound (Ia) from pharmaceutical composition (g) was studied after the application of a dose of 10 mg/cm^2 on human skin mounted on a Franz cell. This study was carried out by comparing percutaneous absorption on healthy skin and on delaminated skin, as a model of the weak keratinization of the anogenital region.
# After 8 or 24 hours of exposure to pharmaceutical composition (g), the quantity of compound (Ia) present in each skin layer (stratum corneum, epidermis, dermis) and that having crossed the skin (receiving fluid) is quantified by HPLC.
# The stratum corneum of the non-delaminated skin samples is removed from the epidermis by peeling with adhesive. The latter is applied to the skin surface under constant and controlled pressure.
# Chain of interaction between the E1 and E2 proteins of HPV11/HPV6 (P04014 whole entry): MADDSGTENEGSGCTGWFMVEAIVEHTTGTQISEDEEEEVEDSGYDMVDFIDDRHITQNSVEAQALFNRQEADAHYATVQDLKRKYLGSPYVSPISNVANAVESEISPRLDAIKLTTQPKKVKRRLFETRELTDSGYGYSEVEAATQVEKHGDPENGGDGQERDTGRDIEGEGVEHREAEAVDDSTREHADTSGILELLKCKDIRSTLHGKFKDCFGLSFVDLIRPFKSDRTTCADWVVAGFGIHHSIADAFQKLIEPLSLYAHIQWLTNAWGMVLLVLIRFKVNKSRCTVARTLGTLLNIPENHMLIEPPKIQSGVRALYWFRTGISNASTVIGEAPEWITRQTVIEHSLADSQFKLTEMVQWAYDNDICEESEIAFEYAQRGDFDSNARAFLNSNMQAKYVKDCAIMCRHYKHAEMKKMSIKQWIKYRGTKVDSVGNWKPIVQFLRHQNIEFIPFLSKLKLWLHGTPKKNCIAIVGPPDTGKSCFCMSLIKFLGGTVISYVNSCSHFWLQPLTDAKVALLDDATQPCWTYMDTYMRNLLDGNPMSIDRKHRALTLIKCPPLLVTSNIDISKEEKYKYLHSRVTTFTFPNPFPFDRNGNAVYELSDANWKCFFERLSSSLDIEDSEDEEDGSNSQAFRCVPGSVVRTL
# Chain of interaction between the E1 and E2 proteins of HPV11/HPV6 (P04015 whole entry): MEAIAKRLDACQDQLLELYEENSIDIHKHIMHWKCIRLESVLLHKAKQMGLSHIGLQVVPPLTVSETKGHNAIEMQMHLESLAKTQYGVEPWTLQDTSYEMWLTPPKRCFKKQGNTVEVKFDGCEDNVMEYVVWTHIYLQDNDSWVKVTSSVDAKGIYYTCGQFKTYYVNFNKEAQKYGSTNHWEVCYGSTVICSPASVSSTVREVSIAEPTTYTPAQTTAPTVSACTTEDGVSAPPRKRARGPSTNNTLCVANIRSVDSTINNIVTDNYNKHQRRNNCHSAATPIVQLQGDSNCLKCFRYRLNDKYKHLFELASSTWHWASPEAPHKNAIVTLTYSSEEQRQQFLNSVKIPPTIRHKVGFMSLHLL
smiles,measurement,setting,value
"COc1cc(CC(=O)NN(c2ccc(Cc3ccccc3)cc2)c2c(C)cccc2N2CCCCC2)c(Br)cc1C(=O)O [Compound (Ia), 4-[N′-(4-benzyl-phenyl)-N′-(2-methyl-6-piperidin-1-yl-phenyl)-hydrazinocarbonylmethyl]-5-bromo-2-methoxy-benzoic acid]",solubility,[1],increases the solubility
same,pIC50,[2],~6.00
same,pIC50,[3],~6.00
same,local concentration in the skin relative to the IC50 measured in cellulo,[4]; delaminated skin,1000 times
same,local concentration in the skin relative to the IC50 measured in cellulo,[4]; healthy skin,100 times
